Experimental findings from US20190159455A1 (priority 2016, published 2019) are described below.

Where two headings read alike, the source gives them in different places.

The assay concerns Phytophthora infestans(Phytin). It counts as cell-based. The conditions noted are these: 7 days after inoculation.

For the setting “1 ppm”, `O=C(NCCc1ncc(C(F)(F)F)cc1Cl)c1ccccc1C(F)(F)F` [Fluopyram, fluopyram] yielded an Observed efficacy of 10.

`c1ccc(-c2noc(-c3cccs3)n2)cc1` [Tioxazafen, tioxazafen] came in with an Observed efficacy (4 ppm) of 7.
